{"source": "PubChem BioAssay (NCI)", "assay_in_all_cases": "NCI-60 cell line screen, 48 h", "key": {"COLO 205 colon": {"system": "COLO 205 colon"}, "OVCAR-5 ovarian": {"system": "OVCAR-5 ovarian"}, "TK-10 renal": {"system": "TK-10 renal"}, "MDA-MB-231 breast": {"system": "MDA-MB-231 breast"}, "NCI/ADR-RES ovarian": {"system": "NCI/ADR-RES ovarian"}, "SF-295 CNS": {"system": "SF-295 CNS"}, "SN12C renal": {"system": "SN12C renal"}, "IGROV1 ovarian": {"system": "IGROV1 ovarian"}, "HL-60(TB) leukemia": {"system": "HL-60(TB) leukemia"}, "HCC-2998 colon": {"system": "HCC-2998 colon"}, "SF-539 CNS": {"system": "SF-539 CNS"}, "UACC-257 melanoma": {"system": "UACC-257 melanoma"}, "T-47D breast": {"system": "T-47D breast"}, "UACC-62 melanoma": {"system": "UACC-62 melanoma"}, "UO-31 renal": {"system": "UO-31 renal"}, "A498 renal": {"system": "A498 renal"}}, "note": "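1) Cells in 96-well plates. 2) Compound, 48 h, 5 concentrations. 3) Linear interpolation between surrounding doses. 4) Unreached endpoint = highest concentration. TGI marks complete inhibition of growth.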", "data": [{"smiles": "Nc1cc(N2CCCC2)nc(=O)n1-c1ccccc1", "values": [{"measurement": "TGI", "setting": "COLO 205 colon", "value": "> 100", "unit": "µM"}, {"measurement": "TGI", "setting": "OVCAR-5 ovarian", "value": "> 100", "unit": "µM"}, {"measurement": "TGI", "setting": "TK-10 renal", "value": "> 100", "unit": "µM"}, {"measurement": "TGI", "setting": "MDA-MB-231 breast", "value": "> 100", "unit": "µM"}, {"measurement": "TGI", "setting": "NCI/ADR-RES ovarian", "value": "> 100", "unit": "µM"}, {"measurement": "TGI", "setting": "SF-295 CNS", "value": "> 100", "unit": "µM"}, {"measurement": "TGI", "setting": "SN12C renal", "value": "> 100", "unit": "µM"}, {"measurement": "TGI", "setting": "IGROV1 ovarian", "value": "> 100", "unit": "µM"}, {"measurement": "TGI", "setting": "HL-60(TB) leukemia", "value": "> 100", "unit": "µM"}, {"measurement": "TGI", "setting": "HCC-2998 colon", "value": 75.6, "unit": "µM"}, {"measurement": "TGI", "setting": "SF-539 CNS", "value": "> 100", "unit": "µM"}, {"measurement": "TGI", "setting": "UACC-257 melanoma", "value": "> 100", "unit": "µM"}]}, {"smiles": "O=C(CSc1nc2[nH]ncc2c(=O)[nH]1)c1ccc(Cl)cc1", "values": [{"measurement": "TGI", "setting": "COLO 205 colon", "value": "> 100", "unit": "µM"}, {"measurement": "TGI", "setting": "T-47D breast", "value": "> 100", "unit": "µM"}, {"measurement": "TGI", "setting": "OVCAR-5 ovarian", "value": "> 100", "unit": "µM"}, {"measurement": "TGI", "setting": "TK-10 renal", "value": "> 100", "unit": "µM"}, {"measurement": "TGI", "setting": "MDA-MB-231 breast", "value": "> 100", "unit": "µM"}, {"measurement": "TGI", "setting": "NCI/ADR-RES ovarian", "value": "> 100", "unit": "µM"}, {"measurement": "TGI", "setting": "UACC-62 melanoma", "value": "> 100", "unit": "µM"}, {"measurement": "TGI", "setting": "SF-295 CNS", "value": "> 100", "unit": "µM"}, {"measurement": "TGI", "setting": "UO-31 renal", "value": "> 100", "unit": "µM"}, {"measurement": "TGI", "setting": "SN12C renal", "value": "> 100", "unit": "µM"}, {"measurement": "TGI", "setting": "IGROV1 ovarian", "value": "> 100", "unit": "µM"}, {"measurement": "TGI", "setting": "HCC-2998 colon", "value": "> 100", "unit": "µM"}, {"measurement": "TGI", "setting": "SF-539 CNS", "value": "> 100", "unit": "µM"}, {"measurement": "TGI", "setting": "UACC-257 melanoma", "value": "> 100", "unit": "µM"}]}, {"smiles": "O=c1ccn(C2OC(CO)C(O)C2[Se]c2ccccc2)c(=O)[nH]1", "note": "(stereo not given)", "values": [{"measurement": "TGI", "setting": "COLO 205 colon", "value": "> 100", "unit": "µM"}, {"measurement": "TGI", "setting": "OVCAR-5 ovarian", "value": "> 100", "unit": "µM"}, {"measurement": "TGI", "setting": "TK-10 renal", "value": 0.685, "unit": "µM"}, {"measurement": "TGI", "setting": "A498 renal", "value": "> 100", "unit": "µM"}, {"measurement": "TGI", "setting": "MDA-MB-231 breast", "value": "> 100", "unit": "µM"}, {"measurement": "TGI", "setting": "NCI/ADR-RES ovarian", "value": "> 100", "unit": "µM"}, {"measurement": "TGI", "setting": "UACC-62 melanoma", "value": 7.31, "unit": "µM"}, {"measurement": "TGI", "setting": "SF-295 CNS", "value": "> 100", "unit": "µM"}, {"measurement": "TGI", "setting": "UO-31 renal", "value": "> 100", "unit": "µM"}, {"measurement": "TGI", "setting": "SN12C renal", "value": "> 100", "unit": "µM"}, {"measurement": "TGI", "setting": "IGROV1 ovarian", "value": "> 100", "unit": "µM"}, {"measurement": "TGI", "setting": "HL-60(TB) leukemia", "value": "> 100", "unit": "µM"}, {"measurement": "TGI", "setting": "HCC-2998 colon", "value": "> 100", "unit": "µM"}, {"measurement": "TGI", "setting": "SF-539 CNS", "value": "> 100", "unit": "µM"}, {"measurement": "TGI", "setting": "UACC-257 melanoma", "value": 14.2, "unit": "µM"}]}, {"smiles": "N#Cc1c(N)[nH]c(=S)c(C#N)c1-c1ccccc1", "values": [{"measurement": "TGI", "setting": "T-47D breast", "value": "> 100", "unit": "µM"}, {"measurement": "TGI", "setting": "OVCAR-5 ovarian", "value": "> 100", "unit": "µM"}, {"measurement": "TGI", "setting": "TK-10 renal", "value": "> 100", "unit": "µM"}, {"measurement": "TGI", "setting": "A498 renal", "value": "> 100", "unit": "µM"}, {"measurement": "TGI", "setting": "MDA-MB-231 breast", "value": "> 100", "unit": "µM"}, {"measurement": "TGI", "setting": "UACC-62 melanoma", "value": "> 100", "unit": "µM"}, {"measurement": "TGI", "setting": "SF-295 CNS", "value": "> 100", "unit": "µM"}, {"measurement": "TGI", "setting": "UO-31 renal", "value": "> 100", "unit": "µM"}, {"measurement": "TGI", "setting": "SN12C renal", "value": "> 100", "unit": "µM"}, {"measurement": "TGI", "setting": "IGROV1 ovarian", "value": "> 100", "unit": "µM"}, {"measurement": "TGI", "setting": "HL-60(TB) leukemia", "value": "> 100", "unit": "µM"}, {"measurement": "TGI", "setting": "HCC-2998 colon", "value": "> 100", "unit": "µM"}, {"measurement": "TGI", "setting": "SF-539 CNS", "value": "> 100", "unit": "µM"}, {"measurement": "TGI", "setting": "UACC-257 melanoma", "value": "> 100", "unit": "µM"}]}, {"smiles": "CC(C)(C)Nc1noc(=O)n1C(C)(C)C", "values": [{"measurement": "TGI", "setting": "COLO 205 colon", "value": "> 100", "unit": "µM"}, {"measurement": "TGI", "setting": "OVCAR-5 ovarian", "value": "> 100", "unit": "µM"}, {"measurement": "TGI", "setting": "TK-10 renal", "value": "> 100", "unit": "µM"}, {"measurement": "TGI", "setting": "A498 renal", "value": "> 100", "unit": "µM"}, {"measurement": "TGI", "setting": "MDA-MB-231 breast", "value": "> 100", "unit": "µM"}, {"measurement": "TGI", "setting": "NCI/ADR-RES ovarian", "value": "> 100", "unit": "µM"}, {"measurement": "TGI", "setting": "UACC-62 melanoma", "value": "> 100", "unit": "µM"}, {"measurement": "TGI", "setting": "SF-295 CNS", "value": "> 100", "unit": "µM"}, {"measurement": "TGI", "setting": "UO-31 renal", "value": "> 100", "unit": "µM"}, {"measurement": "TGI", "setting": "SN12C renal", "value": "> 100", "unit": "µM"}, {"measurement": "TGI", "setting": "IGROV1 ovarian", "value": "> 100", "unit": "µM"}, {"measurement": "TGI", "setting": "HL-60(TB) leukemia", "value": "> 100", "unit": "µM"}, {"measurement": "TGI", "setting": "SF-539 CNS", "value": "> 100", "unit": "µM"}, {"measurement": "TGI", "setting": "UACC-257 melanoma", "value": "> 100", "unit": "µM"}]}, {"smiles": "CC(=O)Nc1ccc2[nH]c(-c3cccc(Cl)c3)cc(=O)c2c1", "values": [{"measurement": "TGI", "setting": "COLO 205 colon", "value": 39.9, "unit": "µM"}, {"measurement": "TGI", "setting": "OVCAR-5 ovarian", "value": "> 100", "unit": "µM"}, {"measurement": "TGI", "setting": "TK-10 renal", "value": "> 100", "unit": "µM"}, {"measurement": "TGI", "setting": "MDA-MB-231 breast", "value": "> 100", "unit": "µM"}, {"measurement": "TGI", "setting": "NCI/ADR-RES ovarian", "value": "> 100", "unit": "µM"}, {"measurement": "TGI", "setting": "UACC-62 melanoma", "value": 84.4, "unit": "µM"}, {"measurement": "TGI", "setting": "SN12C renal", "value": "> 100", "unit": "µM"}, {"measurement": "TGI", "setting": "IGROV1 ovarian", "value": "> 100", "unit": "µM"}, {"measurement": "TGI", "setting": "HL-60(TB) leukemia", "value": "> 100", "unit": "µM"}, {"measurement": "TGI", "setting": "HCC-2998 colon", "value": 63.5, "unit": "µM"}, {"measurement": "TGI", "setting": "SF-539 CNS", "value": 30, "unit": "µM"}, {"measurement": "TGI", "setting": "UACC-257 melanoma", "value": "> 100", "unit": "µM"}]}, {"smiles": "CC(=O)NC1=C(NCCN(C)C)C(=O)c2ccccc2C1=O", "values": [{"measurement": "TGI", "setting": "COLO 205 colon", "value": 17.7, "unit": "µM"}, {"measurement": "TGI", "setting": "TK-10 renal", "value": "> 50", "unit": "µM"}, {"measurement": "TGI", "setting": "UACC-62 melanoma", "value": 22.1, "unit": "µM"}, {"measurement": "TGI", "setting": "SF-295 CNS", "value": "> 50", "unit": "µM"}, {"measurement": "TGI", "setting": "UO-31 renal", "value": "> 50", "unit": "µM"}, {"measurement": "TGI", "setting": "SN12C renal", "value": 27.8, "unit": "µM"}, {"measurement": "TGI", "setting": "IGROV1 ovarian", "value": "> 50", "unit": "µM"}, {"measurement": "TGI", "setting": "HL-60(TB) leukemia", "value": 22.5, "unit": "µM"}, {"measurement": "TGI", "setting": "HCC-2998 colon", "value": "> 50", "unit": "µM"}, {"measurement": "TGI", "setting": "SF-539 CNS", "value": 34.4, "unit": "µM"}, {"measurement": "TGI", "setting": "UACC-257 melanoma", "value": 16.8, "unit": "µM"}]}, {"smiles": "CO[C@@H]1C=C[C@@]23c4cc5c(cc4C(=O)O[C@H]2CN(C)[C@H]3C1)OCO5", "values": [{"measurement": "TGI", "setting": "COLO 205 colon", "value": "> 100", "unit": "µM"}, {"measurement": "TGI", "setting": "OVCAR-5 ovarian", "value": "> 100", "unit": "µM"}, {"measurement": "TGI", "setting": "TK-10 renal", "value": "> 100", "unit": "µM"}, {"measurement": "TGI", "setting": "A498 renal", "value": "> 100", "unit": "µM"}, {"measurement": "TGI", "setting": "UACC-62 melanoma", "value": "> 100", "unit": "µM"}, {"measurement": "TGI", "setting": "SF-295 CNS", "value": "> 100", "unit": "µM"}, {"measurement": "TGI", "setting": "UO-31 renal", "value": "> 100", "unit": "µM"}, {"measurement": "TGI", "setting": "SN12C renal", "value": "> 100", "unit": "µM"}, {"measurement": "TGI", "setting": "IGROV1 ovarian", "value": "> 100", "unit": "µM"}, {"measurement": "TGI", "setting": "HL-60(TB) leukemia", "value": "> 100", "unit": "µM"}, {"measurement": "TGI", "setting": "HCC-2998 colon", "value": "> 100", "unit": "µM"}, {"measurement": "TGI", "setting": "SF-539 CNS", "value": "> 100", "unit": "µM"}, {"measurement": "TGI", "setting": "UACC-257 melanoma", "value": "> 100", "unit": "µM"}]}]}
